{"source": "patent US12655120B2", "about": "“GPR52 modulator compounds” (NXERA PHARMA UK LIMITED, priority 2020, dated 2026)", "biological_target": "T1, human GPR52 (Homo sapiens, UniProt Q9Y2T5)", "T1 construct": "expressed in transfected cells; host or cells: HEKf suspension cells infected with BacMam virus", "T1 sequence (Q9Y2T5 whole entry)": "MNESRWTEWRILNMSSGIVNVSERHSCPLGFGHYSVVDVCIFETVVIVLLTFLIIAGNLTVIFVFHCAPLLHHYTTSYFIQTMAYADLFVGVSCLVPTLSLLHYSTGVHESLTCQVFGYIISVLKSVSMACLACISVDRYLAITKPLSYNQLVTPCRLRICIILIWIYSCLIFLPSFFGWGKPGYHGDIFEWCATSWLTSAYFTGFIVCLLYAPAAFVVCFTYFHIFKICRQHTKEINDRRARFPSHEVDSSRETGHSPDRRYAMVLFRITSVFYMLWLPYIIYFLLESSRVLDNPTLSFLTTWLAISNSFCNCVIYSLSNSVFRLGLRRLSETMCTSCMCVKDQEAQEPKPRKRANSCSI", "experiment": "GPR52 Agonist Functional cAMP Assay", "type": "cell-based", "conditions": "for EC50: HEKf cells infected with human GPR52 BacMam, HTRF cAMP, 30 min at 37° C., read-out: pEC50 average (converted); for Emax: normalised to DMSO (0%) and maximal compound 7m (J. Med. Chem., 2014, 57, 5226) response (100%)", "experimental": "HEKf suspension cells were infected for 24 h with 0.1% v/v human GPR52 expressing BacMam virus, a modified baculovirus designed for mammalian gene expression. Following BacMam infection, cells were pelleted by centrifugation (335 g, 5 min), resuspended in cell freezing medium (Sigma) and frozen at −150° C. until required. On experiment day, 25 nL GPR52 compound dilutions, prepared in DMSO, were stamped onto proxiplates (PerkinElmer) by a LabCyte ECHO acoustic dispenser. Frozen cells were thawed and resuspended in assay stimulation buffer (Cisbio) containing 0.5 mM 3-iso-butyl-1-methylxanthine (IBMX, Sigma) to achieve a density of 2000 cells per well. 10 μl cells were added to assay plates using a Multidrop Combi Reagent Dispenser (ThermoFisher) before centrifugation (335 g, 1 min). Cells were incubated with compounds at 37° C. for 30 min prior to addition of cAMP detection reagents (HiRange cAMP kit, Cisbio) which were prepared according to the manufacturer's instructions. Plates were shaken for 1 h at room temperature before reading on a PHERAstar FS plate reader (BMG Labtech) using standard HTRF settings. HTRF ratios were obtained by dividing the acceptor emissions (665 nm) by the donor emissions (620 nm) and multiplying by 10,000.", "data": [{"compound": "Cc1cn(-c2cccc(Cc3cc(F)cc(C(F)(F)F)c3)n2)nc1C(N)=O", "note": "[Example 15, 1-(6-(3-fluoro-5-(trifluoromethyl)benzyl)pyridin-2-yl)-4-methyl-1H-pyrazole-3-carboxamide]", "values": [{"measurement": "EC50", "result": 79.4, "unit": "nM"}, {"measurement": "Emax", "result": 92, "unit": "%"}]}, {"compound": "O=C(NCCO)c1ccn(-c2cc(Cc3cc(F)cc(C(F)(F)F)c3)ccn2)n1", "note": "[Example 35, 1-(4-(3-fluoro-5-(trifluoromethyl)benzyl)pyridin-2-yl)-N-(2-hydroxyethyl)-1H-pyrazole-3-carboxamide]", "values": [{"measurement": "EC50", "result": 398, "unit": "nM"}, {"measurement": "Emax", "result": 83, "unit": "%"}]}, {"compound": "Cc1cn(-c2cc(Cc3cc(F)cc(C(F)(F)F)c3)ccn2)nc1C(N)=O", "note": "[Example 10, 1-(4-(3-fluoro-5-(trifluoromethyl)benzyl)pyridin-2-yl)-4-methyl-1H-pyrazole-3-carboxamide]", "values": [{"measurement": "EC50", "result": 79.4, "unit": "nM"}, {"measurement": "Emax", "result": 83, "unit": "%"}]}, {"compound": "NC(=O)c1cnn(-c2ccnc(Cc3cc(F)cc(C(F)(F)F)c3)c2)c1", "note": "[Example 2, 1-(2-(3-fluoro-5-(trifluoromethyl)benzyl)pyridin-4-yl)-1H-pyrazole-4-carboxamide]", "values": [{"measurement": "EC50", "result": 501, "unit": "nM"}, {"measurement": "Emax", "result": 90, "unit": "%"}]}, {"compound": "Cc1nn(-c2ccnc(Cc3cc(F)cc(C(F)(F)F)c3)c2)nc1C(N)=O", "note": "[Example 12, 2-(2-(3-fluoro-5-(trifluoromethyl)benzyl)pyridin-4-yl)-5-methyl-2H-1,2,3-triazole-4-carboxamide]", "values": [{"measurement": "EC50", "result": 50.1, "unit": "nM"}, {"measurement": "Emax", "result": 95, "unit": "%"}]}, {"compound": "Cc1nn(-c2ccnc(Cc3cc(F)cc(C(F)(F)F)c3)c2)cc1C(N)=O", "note": "[Example 8, 1-(2-(3-fluoro-5-(trifluoromethyl)benzyl)pyridin-4-yl)-3-methyl-1H-pyrazole-4-carboxamide]", "values": [{"measurement": "EC50", "result": 20, "unit": "nM"}, {"measurement": "Emax", "result": 96, "unit": "%"}]}, {"compound": "Cc1nn(-c2cc(Cc3cc(F)cc(C(F)(F)F)c3)ccn2)c(C)c1C(N)=O", "note": "[Example 6, 1-(4-(3-fluoro-5-(trifluoromethyl)benzyl)pyridin-2-yl)-3,5-dimethyl-1H-pyrazole-4-carboxamide]", "values": [{"measurement": "EC50", "result": 12.6, "unit": "nM"}, {"measurement": "Emax", "result": 97, "unit": "%"}]}, {"compound": "CNC(=O)c1cn(-c2ccnc(Cc3cc(F)cc(C(F)(F)F)c3)c2)nc1C", "note": "[Example 17, 1-(2-(3-fluoro-5-(trifluoromethyl)benzyl)pyridin-4-yl)-N,3-dimethyl-1H-pyrazole-4-carboxamide]", "values": [{"measurement": "EC50", "result": 10, "unit": "nM"}, {"measurement": "Emax", "result": 93, "unit": "%"}]}, {"compound": "COc1nn(-c2cc(Cc3cc(F)cc(C(F)(F)F)c3)ccn2)cc1C(N)=O", "note": "[Example 14, 1-(4-(3-fluoro-5-(trifluoromethyl)benzyl)pyridin-2-yl)-3-methoxy-1H-pyrazole-4-carboxamide]", "values": [{"measurement": "EC50", "result": 31.6, "unit": "nM"}, {"measurement": "Emax", "result": 95, "unit": "%"}]}, {"compound": "COc1nn(-c2ccnc(Cc3cc(F)cc(C(F)(F)F)c3)c2)cc1C(N)=O", "note": "[Example 11, 1-(2-(3-fluoro-5-(trifluoromethyl)benzyl)pyridin-4-yl)-3-methoxy-1H-pyrazole-4-carboxamide]", "values": [{"measurement": "EC50", "result": 251, "unit": "nM"}, {"measurement": "Emax", "result": 86, "unit": "%"}]}, {"compound": "NC(=O)c1cnn(-c2cc(Cc3cc(F)cc(C(F)(F)F)c3)ccn2)c1", "note": "[Example 1, 1-(4-(3-fluoro-5-(trifluoromethyl)benzyl)pyridin-2-yl)-1H-pyrazole-4-carboxamide]", "values": [{"measurement": "EC50", "result": 126, "unit": "nM"}, {"measurement": "Emax", "result": 90, "unit": "%"}]}, {"compound": "Cc1nn(-c2cc(Cc3cc(F)cc(C(F)(F)F)c3)ccn2)cc1C(N)=O", "note": "[Example 5, 1-(4-(3-fluoro-5-(trifluoromethyl)benzyl)pyridin-2-yl)-3-methyl-1H-pyrazole-4-carboxamide]", "values": [{"measurement": "EC50", "result": 15.8, "unit": "nM"}, {"measurement": "Emax", "result": 94, "unit": "%"}]}, {"compound": "NC(=O)c1nn(-c2cccc(Cc3cc(F)cc(C(F)(F)F)c3)n2)cc1CO", "note": "[Example 51, 1-(6-(3-fluoro-5-(trifluoromethyl)benzyl)pyridin-2-yl)-4-(hydroxymethyl)-1H-pyrazole-3-carboxamide]", "values": [{"measurement": "EC50", "result": 501, "unit": "nM"}, {"measurement": "Emax", "result": 83, "unit": "%"}]}, {"compound": "NC(=O)c1cn(-c2ccnc(Cc3cc(F)cc(C(F)(F)F)c3)c2)nc1C(F)F", "note": "[Example 23, 3-(difluoromethyl)-1-(2-(3-fluoro-5-(trifluoromethyl)benzyl)pyridin-4-yl)-1H-pyrazole-4-carboxamide]", "values": [{"measurement": "EC50", "result": 25.1, "unit": "nM"}, {"measurement": "Emax", "result": 87, "unit": "%"}]}, {"compound": "O=C(NC1COC1)c1ccn(-c2cc(Cc3cc(F)cc(C(F)(F)F)c3)ccn2)n1", "note": "[Example 34, 1-(4-(3-fluoro-5-(trifluoromethyl)benzyl)pyridin-2-yl)-N-(oxetan-3-yl)-1H-pyrazole-3-carboxamide]", "values": [{"measurement": "EC50", "result": 631, "unit": "nM"}, {"measurement": "Emax", "result": 77, "unit": "%"}]}, {"compound": "Cc1nn(-c2ccnc(Cc3cc(F)cc(C(F)(F)F)c3)c2)c(CO)c1C(N)=O", "note": "[Example 41, 1-(2-(3-fluoro-5-(trifluoromethyl)benzyl)pyridin-4-yl)-5-(hydroxymethyl)-3-methyl-1H-pyrazole-4-carboxamide]", "values": [{"measurement": "Emax", "result": 98, "unit": "%"}]}, {"compound": "NC(=O)c1cn(-c2ccnc(Cc3cc(F)cc(C(F)(F)F)c3)c2)nc1Cl", "note": "[Example 22, 3-chloro-1-(2-(3-fluoro-5-(trifluoromethyl)benzyl)pyridin-4-yl)-1H-pyrazole-4-carboxamide]", "values": [{"measurement": "EC50", "result": 15.8, "unit": "nM"}, {"measurement": "Emax", "result": 96, "unit": "%"}]}, {"compound": "Cc1nn(-c2cc(Cc3cc(F)cc(C(F)F)c3)ccn2)cc1C(N)=O", "note": "[Example 37, 1-(4-(3-(difluoromethyl)-5-fluorobenzyl)pyridin-2-yl)-3-methyl-1H-pyrazole-4-carboxamide]", "values": [{"measurement": "EC50", "result": 79.4, "unit": "nM"}, {"measurement": "Emax", "result": 96, "unit": "%"}]}, {"compound": "NC(=O)c1cn(-c2cccc(Cc3cc(F)cc(C(F)(F)F)c3)n2)nc1CO", "note": "[Example 47, 1-(6-(3-fluoro-5-(trifluoromethyl)benzyl)pyridin-2-yl)-3-(hydroxymethyl)-1H-pyrazole-4-carboxamide]", "values": [{"measurement": "EC50", "result": 501, "unit": "nM"}, {"measurement": "Emax", "result": 52, "unit": "%"}]}, {"compound": "NC(=O)c1ccn(-c2cc(Cc3cc(F)cc(C(F)F)c3)ccn2)n1", "note": "[Example 38, 1-(4-(3-(difluoromethyl)-5-fluorobenzyl)pyridin-2-yl)-1H-pyrazole-3-carboxamide]", "values": [{"measurement": "EC50", "result": 20, "unit": "nM"}, {"measurement": "Emax", "result": 93, "unit": "%"}]}, {"compound": "N#Cc1nn(-c2ccnc(Cc3cc(F)cc(C(F)(F)F)c3)c2)cc1C(N)=O", "note": "[Example 26, 3-cyano-1-(2-(3-fluoro-5-(trifluoromethyl)benzyl)pyridin-4-yl)-1H-pyrazole-4-carboxamide]", "values": [{"measurement": "EC50", "result": 100, "unit": "nM"}, {"measurement": "Emax", "result": 87, "unit": "%"}]}, {"compound": "COCCNC(=O)c1cn(-c2ccnc(Cc3cc(F)cc(C(F)(F)F)c3)c2)nc1C", "note": "[Example 21, 1-(2-(3-fluoro-5-(trifluoromethyl)benzyl)pyridin-4-yl)-N-(2-methoxyethyl)-3-methyl-1H-pyrazole-4-carboxamide]", "values": [{"measurement": "EC50", "result": 39.8, "unit": "nM"}, {"measurement": "Emax", "result": 96, "unit": "%"}]}, {"compound": "Cc1nn(-c2cc(Cc3cc(F)cc(C(F)(F)F)c3)ccn2)nc1C(N)=O", "note": "[Example 13, 2-(4-(3-fluoro-5-(trifluoromethyl)benzyl)pyridin-2-yl)-5-methyl-2H-1,2,3-triazole-4-carboxamide]", "values": [{"measurement": "EC50", "result": 39.8, "unit": "nM"}, {"measurement": "Emax", "result": 93, "unit": "%"}]}, {"compound": "CNC(=O)c1cc(C)n(-c2cc(Cc3cc(F)cc(C(F)(F)F)c3)ccn2)n1", "note": "[Example 28, 1-(4-(3-fluoro-5-(trifluoromethyl)benzyl)pyridin-2-yl)-N,5-dimethyl-1H-pyrazole-3-carboxamide]", "values": [{"measurement": "EC50", "result": 31.6, "unit": "nM"}, {"measurement": "Emax", "result": 95, "unit": "%"}]}, {"compound": "Cc1nn(-c2ccnc(Cc3cc(F)cc(C(F)(F)F)c3)c2)cc1C(=O)NC1COC1", "note": "[Example 19, 1-(2-(3-fluoro-5-(trifluoromethyl)benzyl)pyridin-4-yl)-3-methyl-N-(oxetan-3-yl)-1H-pyrazole-4-carboxamide]", "values": [{"measurement": "EC50", "result": 15.8, "unit": "nM"}, {"measurement": "Emax", "result": 99, "unit": "%"}]}, {"compound": "Cc1nn(-c2ccnc(Cc3cc(F)cc(C(F)(F)F)c3)c2)c(CO)c1C(=O)NCCO", "note": "[Example 42, 1-(2-(3-fluoro-5-(trifluoromethyl)benzyl)pyridin-4-yl)-N-(2-hydroxyethyl)-5-(hydroxymethyl)-3-methyl-1H-pyrazole-4-carboxamide]", "values": [{"measurement": "Emax", "result": 100, "unit": "%"}]}, {"compound": "CN(C)C(=O)c1ccn(-c2cc(Cc3cc(F)cc(C(F)(F)F)c3)ccn2)n1", "note": "[Example 32, 1-(4-(3-fluoro-5-(trifluoromethyl)benzyl)pyridin-2-yl)-N,N-dimethyl-1H-pyrazole-3-carboxamide]", "values": [{"measurement": "EC50", "result": 200, "unit": "nM"}, {"measurement": "Emax", "result": 75, "unit": "%"}]}, {"compound": "Cc1c(C(N)=O)c(CO)nn1-c1cc(Cc2cc(F)cc(C(F)(F)F)c2)ccn1", "note": "[Example 53, 1-(4-(3-fluoro-5-(trifluoromethyl)benzyl)pyridin-2-yl)-3-(hydroxymethyl)-5-methyl-1H-pyrazole-4-carboxamide]", "values": [{"measurement": "EC50", "result": 79.4, "unit": "nM"}, {"measurement": "Emax", "result": 97, "unit": "%"}]}, {"compound": "CNC(=O)c1nn(-c2cc(Cc3cc(F)cc(C(F)(F)F)c3)ccn2)cc1CO", "note": "[Example 50, 1-(4-(3-fluoro-5-(trifluoromethyl)benzyl)pyridin-2-yl)-4-(hydroxymethyl)-N-methyl-1H-pyrazole-3-carboxamide]", "values": [{"measurement": "EC50", "result": 10, "unit": "nM"}, {"measurement": "Emax", "result": 82, "unit": "%"}]}, {"compound": "CNC(=O)c1nn(-c2cc(Cc3cc(F)cc(C(F)(F)F)c3)ccn2)cc1C", "note": "[Example 57, 1-(4-(3-fluoro-5-(trifluoromethyl)benzyl)pyridin-2-yl)-N,4-dimethyl-1H-pyrazole-3-carboxamide]", "values": [{"measurement": "EC50", "result": 3.16, "unit": "nM"}, {"measurement": "Emax", "result": 87, "unit": "%"}]}, {"compound": "Cc1c(C(N)=O)cnn1-c1cc(Cc2cc(F)cc(C(F)(F)F)c2)ccn1", "note": "[Example 7, 1-(4-(3-fluoro-5-(trifluoromethyl)benzyl)pyridin-2-yl)-5-methyl-1H-pyrazole-4-carboxamide]", "values": [{"measurement": "EC50", "result": 126, "unit": "nM"}, {"measurement": "Emax", "result": 93, "unit": "%"}]}]}
